Measured values reported in patent US12559529B2, “NPY2 receptor agonists” (Boehringer Ingelheim International GmbH, priority 2019, dated 2026).

Assays:
human NPY4 receptor = target: T1, human NPY4 receptor (Homo sapiens, UniProt P50391); test: HTRF cAMP Gi assay, hY4R; format: cell-based; settings: Table 4; CHO-K1 cells
T1 construct: expressed in transfected cells; host or cells: CHO-K1
Text: The Homogenous Time Resolved fluorescence (HTRF) technology optimized for Gi coupled receptors has thoroughly been described in Cisbio cAMP Gi kit manual. Briefly, the production of intracellular cAMP will generate a competition between unlabeled cAMP and exogenously added d2-cAMP for anti-cAMP antibodies conjugated to cryptate. CHO-K1 cells stably expressing the human NPY1, NPY2, NPY4 and NPY5 receptors were used with the cells brought to life from a frozen stock immediately before assay performance. 2000 cells per well were applied for all four NPY receptor subtype assays. A 384-well format was used applying a total volume of 20 μl using 5 μl cells, 2.5 μl peptide agonist, 2.5 μl forskolin and 5 μl of each of the fluorophores. […] Concentration-response evaluation of compounds was performed with 11 concentrations of agonist peptides (covering 3 decades). EC50 values were calculated by nonlinear regression using sigmoid concentration-response with variable slope.

[1] = target: T2, Human Neuropeptide Y2 Receptor (Homo sapiens, UniProt P49146); test: Radioligand binding competition assay (RLB); settings: Table 3; human 125I-PYY (1-36) 0.02 nM, Y2 receptor membranes; read-out: Ki
T2 construct: purchased CHEMICON HTS066M
T2 sequence (P49146 1-381): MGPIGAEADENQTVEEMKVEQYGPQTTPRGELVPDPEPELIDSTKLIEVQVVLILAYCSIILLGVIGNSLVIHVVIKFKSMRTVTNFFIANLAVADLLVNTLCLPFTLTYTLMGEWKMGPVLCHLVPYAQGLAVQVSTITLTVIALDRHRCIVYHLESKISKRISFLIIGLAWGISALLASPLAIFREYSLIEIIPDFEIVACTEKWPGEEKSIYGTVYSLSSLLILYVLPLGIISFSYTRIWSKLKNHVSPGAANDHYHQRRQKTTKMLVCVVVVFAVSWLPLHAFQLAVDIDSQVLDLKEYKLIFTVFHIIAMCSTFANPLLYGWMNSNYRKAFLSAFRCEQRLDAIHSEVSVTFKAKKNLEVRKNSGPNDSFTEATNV
Procedure, shortened: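 Membranes from cells expressing human Y2 receptor (0.5 μg protein/well) were incubated with radioligand and serially diluted peptides in 50 mM HEPES, 5 mM MgCl2, 1 mM CaCl2, 0.2% ovalbumin, pH 7.4, for 2 h at room temperature with shaking. Bound radioactivity was collected by filtration and counted; IC50 from sigmoidal nonlinear regression.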

human NPY2 receptor = target: T3, human NPY2 receptor (Homo sapiens, UniProt P49146); test: HTRF cAMP Gi assay, hY2R
T3 sequence (P49146 1-381): T2 sequence (P49146 1-381)
Experimental: (§1) Briefly, the production of intracellular cAMP will generate a competition between unlabeled cAMP and exogenously added d2-cAMP for anti-cAMP antibodies conjugated to cryptate. CHO-K1 cells stably expressing the human NPY1, NPY2, NPY4 and NPY5 receptors were used with the cells brought to life from a frozen stock immediately before assay performance. 2000 cells per well were applied for all four NPY receptor subtype assays. A 384-well format was used applying a total volume of 20 μl using 5 μl cells, 2.5 μl peptide agonist, 2.5 μl forskolin and 5 μl of each of the fluorophores. […] Concentration-response evaluation of compounds was performed with 11 concentrations of agonist peptides (covering 3 decades). EC50 values were calculated by nonlinear regression using sigmoid concentration-response with variable slope.

normal NMRI mice = test: Effect on acute food intake in normal NMRI mice; format: in vivo; settings: male NMRI mice, 10 nmol/kg subcutaneously once
Procedure, shortened: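 A single 10 nmol/kg s.c. peptide dose was given 1 h before lights-off to male NMRI mice fasted from 6 h before the night phase (n=7-8). Intake was recorded continuously by microchip-identified HM-2 feeding channels. Values are normalized to vehicle controls (50 mM phosphate buffer pH7 with 5% Mannitol).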

human NPY5 receptor = target: T4, human NPY5 receptor (Homo sapiens, UniProt Q15761); test: HTRF cAMP Gi assay, hY5R
T4 sequence (Q15761 1-445): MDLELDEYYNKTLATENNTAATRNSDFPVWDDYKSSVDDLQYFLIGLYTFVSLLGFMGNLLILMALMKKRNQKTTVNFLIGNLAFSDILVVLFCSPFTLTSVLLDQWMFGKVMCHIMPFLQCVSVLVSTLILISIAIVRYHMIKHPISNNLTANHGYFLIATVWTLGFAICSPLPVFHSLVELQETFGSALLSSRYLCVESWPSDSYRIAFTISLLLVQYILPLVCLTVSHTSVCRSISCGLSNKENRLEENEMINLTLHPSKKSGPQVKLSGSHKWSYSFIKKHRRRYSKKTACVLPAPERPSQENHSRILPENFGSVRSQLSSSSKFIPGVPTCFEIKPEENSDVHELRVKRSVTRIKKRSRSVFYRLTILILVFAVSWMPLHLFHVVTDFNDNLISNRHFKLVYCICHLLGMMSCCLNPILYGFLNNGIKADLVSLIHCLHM

human NPY1 receptor = target: T5, human NPY1 receptor (Homo sapiens, UniProt P25929); test: HTRF cAMP Gi assay, hY1R; format: cell-based; settings: Table 4; CHO-K1 cells
T5 construct: expressed in transfected cells; host or cells: CHO-K1
T5 sequence (P25929 1-384): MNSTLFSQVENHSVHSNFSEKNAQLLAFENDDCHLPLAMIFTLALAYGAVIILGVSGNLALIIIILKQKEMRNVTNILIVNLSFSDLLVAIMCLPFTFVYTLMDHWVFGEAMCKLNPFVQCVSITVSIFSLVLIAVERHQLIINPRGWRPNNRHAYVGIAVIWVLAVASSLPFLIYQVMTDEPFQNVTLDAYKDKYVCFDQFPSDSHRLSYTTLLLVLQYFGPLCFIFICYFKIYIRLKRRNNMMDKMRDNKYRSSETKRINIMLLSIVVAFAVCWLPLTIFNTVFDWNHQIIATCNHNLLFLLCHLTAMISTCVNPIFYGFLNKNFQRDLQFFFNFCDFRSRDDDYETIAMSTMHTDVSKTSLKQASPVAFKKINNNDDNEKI
Experimental: as §1

T1 sequence (P50391 whole entry): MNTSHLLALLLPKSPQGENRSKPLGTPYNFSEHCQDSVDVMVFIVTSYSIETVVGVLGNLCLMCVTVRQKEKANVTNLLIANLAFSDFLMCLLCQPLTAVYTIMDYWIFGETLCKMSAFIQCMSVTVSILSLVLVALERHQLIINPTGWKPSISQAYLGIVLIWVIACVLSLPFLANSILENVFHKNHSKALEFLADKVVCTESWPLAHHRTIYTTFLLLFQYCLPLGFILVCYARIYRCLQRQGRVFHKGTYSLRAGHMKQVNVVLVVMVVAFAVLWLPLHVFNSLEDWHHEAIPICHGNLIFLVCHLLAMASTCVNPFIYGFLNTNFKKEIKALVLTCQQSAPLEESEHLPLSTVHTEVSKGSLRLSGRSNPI

| Structure (SMILES) | EC50 (human NPY4 receptor) [nM] | Ki [1] [nM] | EC50 (human NPY2 receptor) [nM] | Acute Food Intake 24 h [% vehicle] (normal NMRI mice) | EC50 (human NPY5 receptor) [nM] | EC50 (human NPY1 receptor) [nM] |
| --- | --- | --- | --- | --- | --- | --- |
| CC(C)CC(=O)N[C@@H](C)C(=O)N1CCC[C@H]1C(=O)N[C@@H](CCC(=O)O)C(=O)N[C@@H](CCCCNC(=O)COCCOCCNC(=O)COCCOCCNC(=O)CC[C@H](NC(=O)CCCCCCCCCCCCCCCCC(=O)O)C(=O)O)C(=O)N1CCC[C@H]1C(=O)N[C@@H](CCC(=O)O)C(=O)N[C@@H](CCC(=O)O)C(=O)N[C@@H](CC(=O)O)C(=O)N[C@@H](C)C(=O)N[C@@H](CO)C(=O)N1CCC[C@H]1C(=O)N[C@@H](CCC(=O)O)C(=O)N[C@@H](CCC(=O)O)C(=O)N[C@@H](CC(C)C)C(=O)N[C@@H](CCC(N)=O)C(=O)N[C@@H](CCCNC(=N)N)C(=O)N[C@@H](Cc1ccc(O)cc1)C(=O)N[C@@H](Cc1ccc(O)cc1)C(=O)N[C@H](C(=O)N[C@@H](CO)C(=O)N[C@@H](CC(C)C)C(=O)N[C@@H](CCCNC(=N)N)C(=O)N[C@@H](Cc1c[nH]cn1)C(=O)N[C@@H](Cc1ccc(O)cc1)C(=O)N[C@@H](Cc1ccc(O)cc1)C(=O)N[C@@H](CC(N)=O)C(=O)N[C@@H](Cc1c[nH]c2ccccc12)C(=O)N[C@@H](CC(C)C)C(=O)N[C@H](C(=O)N[C@@H](CCCNC(=N)N)C(=O)N[C@@H](CCC(N)=O)C(=O)N[C@@H](CCCNC(=N)N)C(=O)N[C@@H](Cc1ccc(O)cc1)C(N)=O)[C@@H](C)O)C(C)C [Compound 54, N{alpha-4}-(3-methylbutanoyl)-N{epsilon-7}-[2-(2-{2-[2-(2-{2-[(4S)-4-carboxy-4-(17-carboxyheptadecanamido)butanamido]ethoxy}ethoxy)acetamido]ethoxy}ethoxy)acetamido]-[4A,7K,9E,18Q,22V,28Y,30W,31L]hPYY (4-36)] | > 5000 | 0.95 | 0.131 | 42 | > 5000 | > 5000 |
| CC(C)CC(=O)N[C@@H](C)C(=O)N1CCC[C@H]1C(=O)N[C@@H](CCC(=O)O)C(=O)N[C@@H](CCCCNC(=O)COCCOCCNC(=O)COCCOCCNC(=O)CC[C@H](NC(=O)CCCCCCCCCCCCCCCCC(=O)O)C(=O)O)C(=O)N1CCC[C@H]1C(=O)N[C@@H](CCC(=O)O)C(=O)N[C@@H](CCC(=O)O)C(=O)N[C@@H](CC(=O)O)C(=O)N[C@@H](C)C(=O)N[C@@H](CCC(=O)O)C(=O)N1CCC[C@H]1C(=O)N[C@@H](CCC(=O)O)C(=O)N[C@@H](CCC(=O)O)C(=O)N[C@@H](CC(C)C)C(=O)N[C@@H](CCC(N)=O)C(=O)N[C@@H](CCC(=O)O)C(=O)N[C@@H](Cc1ccc(O)cc1)C(=O)N[C@@H](Cc1ccc(O)cc1)C(=O)N[C@H](C(=O)N[C@@H](CO)C(=O)N[C@@H](CC(C)C)C(=O)N[C@@H](CCCNC(=N)N)C(=O)N[C@@H](Cc1c[nH]cn1)C(=O)N[C@@H](Cc1ccc(O)cc1)C(=O)N[C@@H](Cc1ccc(O)cc1)C(=O)N[C@@H](CC(N)=O)C(=O)N[C@@H](Cc1c[nH]c2ccccc12)C(=O)N[C@@H](CC(C)C)C(=O)N[C@H](C(=O)N[C@@H](CCCNC(=N)N)C(=O)N[C@@H](CCC(N)=O)C(=O)N[C@@H](CCCNC(=N)N)C(=O)N[C@@H](Cc1ccc(O)cc1)C(N)=O)[C@@H](C)O)C(C)C [Compound 105, N{alpha-4}-(3-methylbutanoyl)-N{epsilon-7}-[2-(2-{2-[2-(2-{2-[(4S)-4-carboxy-4-(17-carboxyheptadecanamido)butanamido]ethoxy}ethoxy)acetamido]ethoxy}ethoxy)acetamido]-[4A,7K,9E,13E,18Q,19E,22V,28Y,30W,31L]hPYY (4-36)] | > 5000 | 6.94 | 0.284 | 72 | > 5000 | > 5000 |
| CC(C)CC(=O)N[C@@H](C)C(=O)N1CCC[C@H]1C(=O)N[C@@H](CCC(=O)O)C(=O)N[C@@H](CCCCNC(=O)COCCOCCNC(=O)COCCOCCNC(=O)CC[C@H](NC(=O)CCCCCCCCCCCCCCCCC(=O)O)C(=O)O)C(=O)N1CCC[C@H]1C(=O)N[C@@H](CCC(=O)O)C(=O)N[C@@H](CCC(=O)O)C(=O)N[C@@H](CC(=O)O)C(=O)N[C@@H](C)C(=O)N[C@@H](CO)C(=O)N[C@@H](CCC(=O)O)C(=O)N[C@@H](CCC(=O)O)C(=O)N[C@@H](CCC(=O)O)C(=O)N[C@@H](CC(C)C)C(=O)N[C@@H](CCC(N)=O)C(=O)N[C@@H](CCC(=O)O)C(=O)N[C@@H](Cc1ccc(O)cc1)C(=O)N[C@@H](Cc1ccc(O)cc1)C(=O)N[C@H](C(=O)N[C@@H](CO)C(=O)N[C@@H](CC(C)C)C(=O)N[C@@H](CCCNC(=N)N)C(=O)N[C@@H](Cc1c[nH]cn1)C(=O)N[C@@H](Cc1ccc(O)cc1)C(=O)N[C@@H](Cc1ccc(O)cc1)C(=O)N[C@@H](CC(N)=O)C(=O)N[C@@H](Cc1c[nH]c2ccccc12)C(=O)N[C@@H](CC(C)C)C(=O)N[C@H](C(=O)N[C@@H](CCCNC(=N)N)C(=O)N[C@@H](CCC(N)=O)C(=O)N[C@@H](CCCNC(=N)N)C(=O)N[C@@H](Cc1ccc(O)cc1)C(N)=O)[C@@H](C)O)C(C)C [Compound 164, N{alpha-4}-(3-methylbutanoyl)-N{epsilon-7}-[2-(2-{2-[2-(2-{2-[(4S)-4-carboxy-4-(17-carboxyheptadecanamido)butanamido]ethoxy}ethoxy)acetamido]ethoxy}ethoxy)acetamido]-[4A,7K,9E,14E,18Q,19E,22V,28Y,30W,31L]hPYY (4-36)] | > 5000 | 4.33 | 0.235 | 64 | > 5000 | > 5000 |
| CC(C)CC(=O)N[C@@H](C)C(=O)N1CCC[C@H]1C(=O)N[C@@H](CCC(=O)O)C(=O)N[C@@H](CCCCNC(=O)COCCOCCNC(=O)COCCOCCNC(=O)CC[C@H](NC(=O)CCCCCCCCCCCCCCCCC(=O)O)C(=O)O)C(=O)N1CCC[C@H]1C(=O)N[C@@H](CCC(=O)O)C(=O)N[C@@H](CCC(=O)O)C(=O)N[C@@H](CC(=O)O)C(=O)N[C@@H](C)C(=O)N[C@@H](CCC(=O)O)C(=O)N1CCC[C@H]1C(=O)N[C@@H](CCC(=O)O)C(=O)N[C@@H](CCC(=O)O)C(=O)N[C@@H](CC(C)C)C(=O)N[C@@H](CCC(N)=O)C(=O)N[C@@H](CCCNC(=N)N)C(=O)N[C@@H](Cc1ccc(O)cc1)C(=O)N[C@@H](Cc1ccc(O)cc1)C(=O)N[C@H](C(=O)N[C@@H](CO)C(=O)N[C@@H](CC(C)C)C(=O)N[C@@H](CCCNC(=N)N)C(=O)N[C@@H](Cc1c[nH]cn1)C(=O)N[C@@H](Cc1ccc(O)cc1)C(=O)N[C@@H](Cc1ccc(O)cc1)C(=O)N[C@@H](CC(N)=O)C(=O)N[C@@H](Cc1c[nH]c2ccccc12)C(=O)N[C@@H](CC(C)C)C(=O)N[C@H](C(=O)N[C@@H](CCCNC(=N)N)C(=O)N[C@@H](CCC(N)=O)C(=O)N[C@@H](CCCNC(=N)N)C(=O)N[C@@H](Cc1ccc(O)cc1)C(N)=O)[C@@H](C)O)C(C)C [Compound 188, N{alpha-4}-(3-methylbutanoyl)-N{epsilon-7}-[2-(2-{2-[2-(2-{2-[(4S)-4-carboxy-4-(17-carboxyheptadecanamido)butanamido]ethoxy}ethoxy)acetamido]ethoxy}ethoxy)acetamido]-[4A,7K,9E,13E,18Q,22V,28Y,30W,31L]hPYY (4-36)] | > 5000 | 3.09 | 0.106 | 55 | > 5000 | > 5000 |
